pIC50: −log10 of the molar value. Read-outs that look alike come from different tables or passages of the source.
What was measured:
[1] = system: forty-four human cancer cell lines; assay: Cell proliferation assay (ATPlite, 72 hours) in the 44 cell line Oncolines panel; type: cell-based; details: Homo sapiens
[2] = biological target: T1, panel of more than 300 wild-type and mutant kinases (313 kinase panel) (Homo sapiens, UniProt O14920); assay: Kinase profiling in a biochemical assay panel (mobility shift assays and ELISA), %-inhibition at 1 μM; selectivity entropy; details: kinase IKKβ; compound at 1 μM
T1 sequence (O14920 1-756): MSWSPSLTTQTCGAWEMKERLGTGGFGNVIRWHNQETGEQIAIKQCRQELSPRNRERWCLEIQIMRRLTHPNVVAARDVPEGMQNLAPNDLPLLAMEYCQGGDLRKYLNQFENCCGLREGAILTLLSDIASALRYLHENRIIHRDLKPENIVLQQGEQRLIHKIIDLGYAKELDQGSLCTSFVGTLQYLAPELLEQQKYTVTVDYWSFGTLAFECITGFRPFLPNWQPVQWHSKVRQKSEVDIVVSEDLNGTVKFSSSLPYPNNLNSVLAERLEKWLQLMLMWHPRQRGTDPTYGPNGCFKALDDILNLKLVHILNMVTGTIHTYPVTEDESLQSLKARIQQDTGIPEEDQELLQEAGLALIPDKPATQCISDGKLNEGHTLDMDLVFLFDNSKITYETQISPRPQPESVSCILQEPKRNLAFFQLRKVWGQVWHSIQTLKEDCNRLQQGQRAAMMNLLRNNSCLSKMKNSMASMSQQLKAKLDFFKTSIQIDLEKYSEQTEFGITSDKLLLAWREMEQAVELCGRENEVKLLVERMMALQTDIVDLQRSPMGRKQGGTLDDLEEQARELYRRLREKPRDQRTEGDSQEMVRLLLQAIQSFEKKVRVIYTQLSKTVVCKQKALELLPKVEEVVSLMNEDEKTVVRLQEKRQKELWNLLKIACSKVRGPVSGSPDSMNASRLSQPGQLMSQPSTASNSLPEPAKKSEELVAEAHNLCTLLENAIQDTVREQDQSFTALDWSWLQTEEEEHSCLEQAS

[3] = biological target: panel of more than 300 wild-type and mutant kinases (313 kinase panel) (Homo sapiens, UniProt O95819); assay: as above; details: kinase HGK; compound at 1 μM
[4] = biological target: panel of more than 300 wild-type and mutant kinases (313 kinase panel) (Homo sapiens, UniProt P29376); assay: as above; details: kinase LTK; compound at 1 μM
[5] = biological target: panel of more than 300 wild-type and mutant kinases (313 kinase panel) (Homo sapiens, UniProt Q13177); assay: as above; details: kinase PAK2; 1 μM
[6] = biological target: panel of more than 300 wild-type and mutant kinases (313 kinase panel) (Homo sapiens, UniProt Q15303); assay: as above; details: kinase HER4; compound at 1 μM
panel of more than 300 wild-type and mutant kinases (313 kinase panel) (Homo sapiens, UniProt Q15303), sequence (Q15303 26-1308, change not shown): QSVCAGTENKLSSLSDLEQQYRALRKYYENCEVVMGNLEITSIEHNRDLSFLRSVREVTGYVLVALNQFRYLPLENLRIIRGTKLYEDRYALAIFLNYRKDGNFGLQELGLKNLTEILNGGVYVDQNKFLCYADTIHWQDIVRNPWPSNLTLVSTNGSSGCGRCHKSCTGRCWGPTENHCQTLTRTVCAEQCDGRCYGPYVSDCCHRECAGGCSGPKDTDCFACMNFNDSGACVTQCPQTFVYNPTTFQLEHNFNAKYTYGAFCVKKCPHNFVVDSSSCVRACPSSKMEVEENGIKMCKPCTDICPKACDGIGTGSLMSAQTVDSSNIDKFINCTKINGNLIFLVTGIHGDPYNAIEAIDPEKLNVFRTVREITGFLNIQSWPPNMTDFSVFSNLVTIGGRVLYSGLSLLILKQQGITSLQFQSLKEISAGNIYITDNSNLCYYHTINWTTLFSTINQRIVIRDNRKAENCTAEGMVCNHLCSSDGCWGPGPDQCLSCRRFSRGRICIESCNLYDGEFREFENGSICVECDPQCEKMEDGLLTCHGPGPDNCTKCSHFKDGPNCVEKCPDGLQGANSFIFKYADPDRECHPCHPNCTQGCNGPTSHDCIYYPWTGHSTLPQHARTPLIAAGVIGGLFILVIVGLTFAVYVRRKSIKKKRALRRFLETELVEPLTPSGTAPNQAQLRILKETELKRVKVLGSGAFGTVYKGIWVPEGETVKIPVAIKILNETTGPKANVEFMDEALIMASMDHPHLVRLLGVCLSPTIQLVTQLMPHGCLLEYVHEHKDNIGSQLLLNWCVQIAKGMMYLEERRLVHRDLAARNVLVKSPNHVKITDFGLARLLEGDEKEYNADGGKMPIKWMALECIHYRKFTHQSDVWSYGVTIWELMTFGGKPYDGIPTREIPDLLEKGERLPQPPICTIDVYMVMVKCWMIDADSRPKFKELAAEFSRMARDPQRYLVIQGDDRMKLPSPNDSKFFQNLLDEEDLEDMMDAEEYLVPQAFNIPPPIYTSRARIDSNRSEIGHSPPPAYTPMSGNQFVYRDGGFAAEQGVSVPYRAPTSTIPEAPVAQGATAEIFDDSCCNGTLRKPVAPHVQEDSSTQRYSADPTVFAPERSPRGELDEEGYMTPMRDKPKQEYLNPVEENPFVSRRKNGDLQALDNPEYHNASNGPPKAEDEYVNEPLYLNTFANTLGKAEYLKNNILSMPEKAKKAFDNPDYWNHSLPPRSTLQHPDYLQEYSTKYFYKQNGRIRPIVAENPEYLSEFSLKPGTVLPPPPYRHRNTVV

[7] = biological target: panel of more than 300 wild-type and mutant kinases (313 kinase panel) (Homo sapiens, UniProt Q16288); assay: as above; details: kinase TRKC; 1 μM
[8] = biological target: T2, panel of more than 300 wild-type and mutant kinases (313 kinase panel) (Homo sapiens, UniProt Q96PF2); assay: as above; details: kinase TSSK2; 1 μM
T2 sequence (Q96PF2 1-358): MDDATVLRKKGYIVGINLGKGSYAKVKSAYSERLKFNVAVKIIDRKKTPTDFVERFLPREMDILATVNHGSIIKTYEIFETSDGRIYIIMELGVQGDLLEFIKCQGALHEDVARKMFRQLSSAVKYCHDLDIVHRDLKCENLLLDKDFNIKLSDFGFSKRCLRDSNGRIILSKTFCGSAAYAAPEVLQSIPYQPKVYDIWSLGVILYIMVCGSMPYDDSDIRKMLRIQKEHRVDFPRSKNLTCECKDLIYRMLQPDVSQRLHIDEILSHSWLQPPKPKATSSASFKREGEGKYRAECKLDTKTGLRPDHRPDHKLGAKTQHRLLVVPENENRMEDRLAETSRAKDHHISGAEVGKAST

[9] = biological target: panel of more than 300 wild-type and mutant kinases (313 kinase panel) (Homo sapiens, UniProt Q9H1R3); assay: as above; details: kinase skMLCK; 1 μM
[10] = biological target: panel of more than 300 wild-type and mutant kinases (313 kinase panel) (Homo sapiens, UniProt Q9H2G2); assay: as above; details: kinase SLK; 1 μM
[11] = A 172, read-out: cell panel IC50, A-172
[12] = A204, cell line A-204, read-out: cell panel IC50, A-204
[13] = A498, read-out: cell panel IC50, A-498
[14] = A549, read-out: cell panel IC50, A-549
[15] = A-375, cell line A375, read-out: cell panel IC50, A375
[16] = A-427, read-out: cell panel IC50, A-427
[17] = AU565, read-out: cell panel IC50, AU-565
[18] = BT-549, read-out: cell panel IC50, BT-549
[19] = HCT-116, read-out: cell panel IC50, HCT-116
[20] = K562, read-out: cell panel IC50, K-562
[21] = LS174T, read-out: cell panel IC50, LS 174T
[22] = SHP77, cell line SHP-77, read-out: cell panel IC50, SHP-77
[23] = SW-620, cell line SW620, read-out: cell panel IC50, SW620
[24] = U2OS, cell line U-2 OS, read-out: cell panel IC50, U-2 OS
[25] = cell line J82, read-out: cell panel IC50, J82
[26] = cell line PA-1, read-out: cell panel IC50, PA-1
[27] = cell line SJCRH30, read-out: cell panel IC50, SJCRH30
[28] = cell line SR, read-out: cell panel IC50, SR
[29] = U-87 MG cell line, ATPlite, 72 hours, read-out: IC50 in cell proliferation assay (table S5 cellpanel data)
[30] = cell line 769-P, read-out: cell panel IC50, 769-P
[31] = cell line 786-0, read-out: cell panel IC50, 786-0
[32] = cell line ACHN, read-out: cell panel IC50, ACHN
[33] = cell line AN3 CA, read-out: cell panel IC50, AN3 CA
[34] = cell line BT-20, read-out: cell panel IC50, BT-20
[35] = cell line BxPC-3, read-out: cell panel IC50, BxPC-3
[36] = cell line C-33 A, read-out: cell panel IC50, C-33 A
[37] = cell line CAL 27, read-out: cell panel IC50, CAL 27
[38] = cell line CCRF-CEM, read-out: cell panel IC50, CCRF-CEM
[39] = cell line DLD-1, read-out: cell panel IC50, DLD-1
[40] = cell line FaDu, read-out: cell panel IC50, FaDu
[41] = cell line HCT-15, read-out: cell panel IC50, HCT-15
[42] = cell line Hs 578T, read-out: cell panel IC50, Hs 578T
[43] = cell line Jurkat E6.1, read-out: cell panel IC50, Jurkat E6.1
[44] = cell line LoVo, read-out: cell panel IC50, LoVo
[45] = cell line MG-63, read-out: cell panel IC50, MG-63
[46] = cell line MOLT-4, read-out: cell panel IC50, MOLT-4
[47] = cell line MeWo, read-out: cell panel IC50, MeWo
[48] = cell line NCI-H82, read-out: cell panel IC50, NCI-H82
[49] = cell line NCI-H460, read-out: cell panel IC50, NCI-H460
[50] = cell line OVCAR-3, read-out: cell panel IC50, OVCAR-3
[51] = cell line RPMI-7951, read-out: cell panel IC50, RPMI-7951
[52] = cell line SK-N-AS, read-out: cell panel IC50, SK-N-AS
[53] = cell line SW48, read-out: cell panel IC50, SW48
[54] = cell line SW480, read-out: cell panel IC50, SW480

Structure (SMILES): CC(=O)Nc1cccc(-n2c(=O)n(C3CC3)c(=O)c3c(Nc4ccc(I)cc4F)n(C)c(=O)c(C)c32)c1 [trametinib]
- pIC50 [1, 11]: 6.96
- pIC50 [1, 12]: 6.20
- pIC50 [1, 13]: 4.65
- pIC50 [1, 14]: 7.24
- pIC50 [1, 15]: 7.89
- pIC50 [1, 16]: 7.77
- pIC50 [1, 17]: 4.71
- pIC50 [1, 18]: 4.75
- pIC50 [1, 19]: 7.46
- pIC50 [1, 20]: 7.43
- pIC50 [1, 21]: 7.43
- pIC50 [1, 22]: < 4.50
- pIC50 [1, 23]: 8.87
- pIC50 [1, 24]: 6.51
- pIC50 [1, 25]: < 4.50
- pIC50 [1, 26]: 6.36
- pIC50 [1, 27]: 6.11
- pIC50 [1, 28]: 6.02
- pIC50 [1, 29]: 6.64
- pIC50 [1, 30]: 7.07
- pIC50 [1, 31]: 4.59
- pIC50 [1, 32]: 6.30
- pIC50 [1, 33]: 4.87
- pIC50 [1, 34]: < 4.50
- pIC50 [1, 35]: 7.54
- pIC50 [1, 36]: 8.10
- pIC50 [1, 37]: 7.24
- pIC50 [1, 38]: 4.55
- pIC50 [1, 39]: 6.31
- pIC50 [1, 40]: 7.85
- pIC50 [1, 41]: 5.69
- pIC50 [1, 42]: 6.43
- pIC50 [1, 43]: < 4.50
- pIC50 [1, 44]: 8.10
- pIC50 [1, 45]: 6.92
- pIC50 [1, 46]: 4.71
- pIC50 [1, 47]: 7.48
- pIC50 [1, 48]: 4.61
- pIC50 [1, 49]: 7.85
- pIC50 [1, 50]: < 4.50
- pIC50 [1, 51]: 8.00
- pIC50 [1, 52]: 8.02
- pIC50 [1, 53]: 8.92
- pIC50 [1, 54]: 6.24
- %-inhibition of IKKβ [2]: 0.741%
- %-inhibition of HGK [3]: -3.71%
- %-inhibition of LTK [4]: -7%
- %-inhibition of PAK2 [5]: -9%
- %-inhibition of HER4 [6]: 2.34%
- %-inhibition of TRKC [7]: -7.43%
- %-inhibition of TSSK2 [8]: -1.73%
- %-inhibition of skMLCK [9]: -3.34%
- %-inhibition of SLK [10]: -2.6%

Structure (SMILES): CCCS(=O)(=O)Nc1ccc(F)c(C(=O)c2c[nH]c3ncc(-c4ccc(Cl)cc4)cc23)c1F [vemurafenib]
- pIC50 [1, 11]: < 4.50
- pIC50 [1, 12]: < 4.50
- pIC50 [1, 13]: 4.69
- pIC50 [1, 14]: 4.53
- pIC50 [1, 15]: 5.40
- pIC50 [1, 16]: < 4.50
- pIC50 [1, 17]: < 4.50
- pIC50 [1, 18]: 4.57
- pIC50 [1, 19]: < 4.50
- pIC50 [1, 20]: 4.52
- pIC50 [1, 21]: < 4.50
- pIC50 [1, 22]: < 4.50
- pIC50 [1, 23]: 4.50
- pIC50 [1, 24]: < 4.50
- pIC50 [1, 25]: < 4.50
- pIC50 [1, 26]: 4.99
- pIC50 [1, 27]: < 4.50
- pIC50 [1, 28]: 5.05
- pIC50 [1, 29]: < 4.50
- pIC50 [1, 30]: < 4.50
- pIC50 [1, 31]: 4.65
- pIC50 [1, 32]: 4.62
- pIC50 [1, 33]: < 4.50
- pIC50 [1, 34]: < 4.50
- pIC50 [1, 35]: 4.85
- pIC50 [1, 36]: < 4.50
- pIC50 [1, 37]: < 4.50
- pIC50 [1, 38]: 4.64
- pIC50 [1, 39]: < 4.50
- pIC50 [1, 40]: < 4.50
- pIC50 [1, 41]: 4.51
- pIC50 [1, 42]: 4.60
- pIC50 [1, 43]: 4.57
- pIC50 [1, 44]: 4.50
- pIC50 [1, 45]: < 4.50
- pIC50 [1, 46]: 4.51
- pIC50 [1, 47]: < 4.50
- pIC50 [1, 48]: 4.52
- pIC50 [1, 49]: 4.52
- pIC50 [1, 50]: < 4.50
- pIC50 [1, 51]: 4.68
- pIC50 [1, 52]: < 4.50
- pIC50 [1, 53]: < 4.50
- pIC50 [1, 54]: 4.65
- %-inhibition of IKKβ [2]: -3.31%
- %-inhibition of HGK [3]: 26%
- %-inhibition of LTK [4]: 2.6%
- %-inhibition of PAK2 [5]: 13%
- %-inhibition of HER4 [6]: 11%
- %-inhibition of TRKC [7]: 5%
- %-inhibition of TSSK2 [8]: -11%
- %-inhibition of skMLCK [9]: 53%
- %-inhibition of SLK [10]: 43%

Reference: article PMC3961306, “Comparison of the Cancer Gene Targeting and Biochemical Selectivities of All Targeted Kinase Inhibitors Approved for Clinical Use” (PLoS ONE, 2014)
